Data published in patent US20230134843A1, “TREATMENT OF STEM CELL DEFICIENCY” (OSPEDALE SAN RAFFAELE S.R.L., priority 2020, published 2023).
Entries after “also recorded” stand apart in the source; their conditions may differ.

Tests used:
mTOR pathway = experiment: Western blot of P70S6 and pP70S6 in corneal epithelium, disepithelization model (Example 1); format: in vivo, mice
Experimental: Eight-week-old C57BL6/N (Charles River, Calco, Italy) (WT mice, n=8) and B6.Cg-Tac1tm1Bbm/J (Jackson Laboratories, Bar Harbor, Me., USA) (TAC1-KO mice, n=8) male mice were used in all experiments. Each animal was anesthetized with intraperitoneal injection of tribromoethanol (250 mg/kg) and a topical anesthetic was applied to their ocular surface prior to the surgical procedure. Disepithelization was performed based on the model previously described, using a blunt spatula to scrap the entire corneal epithelium from limbus to limbus. After wounding, eyes were treated with ophthalmic moxifloxacin 1 time/day for 1 week to […]. Fourteen days after disepithelization mice were euthanized using carbon dioxide inhalation and subsequent cervical dislocation. Corneas were collected for immunostaining and western blot analysis. All experimental protocols were approved by the Animal Care and Use Committee of the Istituto di Ricovero e cura a Carattere Scientifico San Raffaele Scientific Institute, in accordance with the ARVO Statement for the Use of Animals in Ophthalmic and Vision Research.
To evaluate the pharmacological inhibition of Substance P, an additional group of mice (WT-FOSA, n=6) received Fosaprepitant 10 mg/mL (IVEMEND, Merck Sharp & Dohme Ltd., Hoddes-don, UK) dissolved in a total volume of 10 μL phosphate-buffered saline (PBS, Sigma-Aldrich, St. Louis, Mo., USA) or 10 μL of vehicle as control, topically four times a day in both eyes for 14 days. The treatments started 1 day after corneal dispepithelization.
For Western Blot analysis, corneal epithelium was isolated after 30 minutes of EDTA treatment (Sigma-Aldrich Corp., St. Louis, Mo., USA) at 37° C. […] Bands were quantified using Image Lab™ software (Version 6.0.1, Bio-Rad Laboratories, Hercules, Calif., USA).
The expression of p70 S6 Kinase (P70S6), phospho-p70 S6 Kinase (pP70S6), and phospho-histone 2-AX (γH2AX) was evaluated by Western Blot, as previously described in section 2.9. […] Bands were quantified using Image J software (National Institutes of Health, Bethesda, Md., USA).

NK1R = biological target: T1, NK1R (Mus musculus, UniProt P30548); experiment: Corneal opacity grading score, stem cell deficiency model (Example 2); format: in vivo, mice
T1 construct: NK1R is expressed by both corneal epithelial and stem cell-like cells; from tissue; host or cells: cornea / ocular surface of live C57BL6/N mice (topical dosing in vivo)
T1 sequence (P30548 whole entry): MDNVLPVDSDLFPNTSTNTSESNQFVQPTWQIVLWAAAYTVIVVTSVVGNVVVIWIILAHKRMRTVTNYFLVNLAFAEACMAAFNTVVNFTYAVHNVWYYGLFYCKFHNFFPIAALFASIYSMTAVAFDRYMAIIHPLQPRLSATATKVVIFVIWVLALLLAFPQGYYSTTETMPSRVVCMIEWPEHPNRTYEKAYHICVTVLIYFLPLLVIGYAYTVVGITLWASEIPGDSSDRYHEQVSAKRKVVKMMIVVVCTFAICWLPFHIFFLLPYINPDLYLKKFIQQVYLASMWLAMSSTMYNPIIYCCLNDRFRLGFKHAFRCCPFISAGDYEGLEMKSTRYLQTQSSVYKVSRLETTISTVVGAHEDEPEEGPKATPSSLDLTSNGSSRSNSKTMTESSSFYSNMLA
Source text: Eight-week-old male mice C57BL6/N (Charles River, Calco, Italy) (WT mice, n=18) and Tac1-deficient B6.Cg-Tac1tm1Bbm/J (Jackson Laboratories, Bar Harbor, Me., USA) (TAC1-KO mice, n=18) were used in all experiments. TAC1-KO mice are homozygous null for the Tac1 gene. […] The corneal thickness and transparency as well as the corneal nerve length are similar to C57BL/6 mice [Barbariga M, Rabiolo A, Fonteyne P, Bignami F, Rama P, Ferrari G. The effect of aging on nerve morphology and substance P expression in mouse and human corneas. Investig Ophthalmol Vis Sci 2018; 59:5329-35. https://doi.org/10.1167/iovs.18-24707.]. […]
Every day after disepithelization, in vivo corneal photographs were taken using a digital camera (EOS 30D; Canon, Tokyo, Japan) attached to a slit-lamp microscope (Photoslitmap 40 SL-P; Zeiss, Oberkochen, Germany) to assess corneal condition. Corneal opacity was evaluated using a grading score (from 0-4; 0=completely clear, 4=completely opaque) previously described [Yoeruek E, Deuter C, Gieselmann S, Saygili O, Spitzer M S, Tatar O, et al. Long-term visual acuity and its predictors after cataract surgery in patients with uveitis. […] The percentage of green fluorescent area on the total corneal area was evaluated by analyzing images by Image J software (National Institutes of Health, Bethesda, Md., USA).

With `C[C@@H](O[C@H]1OCCN(Cc2nc(=O)n(P(=O)(O)O)[nH]2)[C@H]1c1ccc(F)cc1)c1cc(C(F)(F)F)cc(C(F)(F)F)c1` [Fosaprepitant, [3-{[(2R,3S)-2-[(1R)-1-[3,5-bis(trifluoromethyl)phenyl]ethoxy]-3-(4-fluorophenyl)morpholin-4-yl]methyl}-5-oxo-2H-1,2,4-triazol-1-yl]phosphonic acid] the “pP70S6 expression compared to WT (in words)” value (mTOR pathway; Fosaprepitant 10 mg/mL (WT-FOSA), western blot) was “significant decrease”, the “ratio between pP70S6 and P70S6 expression (mTOR pathway activation) compared to WT” value (mTOR pathway; Fosaprepitant 10 mg/mL topically four times a day for 14 days (WT-FOSA)) was “significant decrease” and the “decrease in pP70S6 expression compared to WT” value (mTOR pathway; Fosaprepitant 10 mg/mL topically four times a day for 14 days (WT-FOSA), p<0.05) was 38%. For the same molecule, the “corneal opacity compared to WT” value (NK1R; Fosaprepitant 0.1 mg/mL (FOSA 0.1) topically 4 times/day for 16 days) was “did not show any improvement; also recorded: no improvement” and the “corneal transparency compared to WT” value (NK1R; Fosaprepitant 1 mg/mL (FOSA 1) topically 4 times/day for 16 days, p<0.05) was “significant improvement; also recorded: better corneal transparency”.
